Read-outs that look alike come from different tables or passages of the source.
Columns and labels:
pancreatic cancer cells = settings: cited from earlier work
NMDAR subunits = settings: cited from earlier work
MHCC97L cells = test: MTT cell viability assay and drug interaction analysis; format: cell-based, human; settings: single drug
HCC patients [1] = settings: phase III BRISK-PS, secondary treatment; cited from earlier work
HCC patients [2] = settings: phase III, first line; cited from earlier work
HCC patients [3] = settings: phase II, cited from earlier work
advanced HCC patients = settings: 28 patients; cited from earlier work
HCC patients [4] = settings: single arm phase II; cited from earlier work
HCC patients [5] = settings: phase III versus sorafenib; cited from earlier work

C[C@]12N[C@H](Cc3ccccc31)c1ccccc12 [MK-801, Dizocilpine (MK-801)]
tumor growth and invasiveness of pancreatic cancer cells (pancreatic cancer cells): reduced tumor growth and invasiveness | NMDAR subunit selectivity (NMDAR subunits): blocks all NMDAR subunits in a non-selective manner | toxicity / safety as therapeutic agent (NMDAR subunits): poses high toxicity and is less tolerated | HCC growth, NMDAR inhibitor alone (MHCC97L cells): did not significantly suppress

Cc1cc2c(F)c(Oc3ncnn4cc(OC[C@@H](C)O)c(C)c34)ccc2[nH]1 [brivanib]
median length of overall survival (HCC patients [1]): 9.4 months | Median survival (HCC patients [2]): 9.5 months | discontinuation rate (HCC patients [2]): 43% | median overall survival (HCC patients [3]; first line): 10 months | median overall survival (HCC patients [3]; second line): 9.5 months

CO[C@H]1C[C@@H]2CC[C@@H](C)[C@@](O)(O2)C(=O)C(=O)N2CCCC[C@H]2C(=O)O[C@H]([C@H](C)C[C@@H]2CC[C@@H](OCCO)[C@H](OC)C2)CC(=O)[C@H](C)/C=C(\C)[C@@H](O)[C@@H](OC)C(=O)[C@H](C)C[C@H](C)/C=C/C=C/C=C/1C [everolimus]
median progression free survival (advanced HCC patients): 3.8 months | overall survival (advanced HCC patients): 8.4 months

Cc1ccc(F)c(NC(=O)Nc2ccc(-c3cccc4[nH]nc(N)c34)cc2)c1 [linifanib]
safety profile (HCC patients [4]): acceptable safety profile

CCN(CC)CCNC(=O)c1c(C)[nH]c(/C=C2\C(=O)Nc3ccc(F)cc32)c1C [sunitinib]
trial outcome (HCC patients [5]): terminated early due to increased side effects and futility concerns

— US20230355596A1, “COMPOSITIONS AND METHODS OF USING NMDAR INHIBITORS AND KINASE INHIBITORS TO TREAT LIVER CANCER” (The University of Hong Kong, priority 2022, published 2023)
